# Experimental data from patent US20100197610A1, “FRUCTOSE 1, 6 BISPHOSPHATE - A NOVEL ANTICONVULSANT DRUG” (Baylor College of Medicine, priority 2007, published 2010).
# How the values were obtained:
# [1] = test system: kainic acid-induced seizures; test: Kainic acid model of acute seizures; format: in vivo, Sprague Dawley rats; details: for animals with mild seizures (wet dog shakes or head bobbing) / animals with severe seizures: 8 animals
# Experimental: All animal experiments were carried out in accordance with the National Institutes of Health guide for the care and use of laboratory animals (NIH publication 8023, revised 1996) and with the approval of the local Animal Use Committee. Unless indicated, all chemicals were obtained from Sigma Chemical Co (St. Louis Mo.). Male, Sprague Dawley rats weighing 50-74 g (young) or 147-309 g (adult) were used in this study. Acute seizures were induced by kainic acid (KA; Ocean Produce Int., Canada), pilocarpine or pentylenetetrazole (PTZ) as previously described (Lian et al 2006). These models were chosen because they initiate seizures by different mechanisms and the seizures have a relatively gradual onset compared to seizures initiated by stimulation. There was no difference in the body weight of the animals receiving the different convulsants. For pilocarpine, kainic acid and PTZ, the mean weights were 219±5 g (range 163-275 g), 215±7 g (range 183-258 g), and 216±13 g (range 147-309 g), respectively. The animals in the drug treatment groups were not different in weight from the animals in the control groups.
# After administration of KA (10 mg/kg, ip), pilocarpine (scopolamine methyl bromide 1 mg/kg, s.c followed 15 min later by 300 mg/kg, ip pilocarpine) or PTZ (50 mg/kg, ip) (Lian et al., 2006), animals were continuously monitored for seizure activity for at least 5 h after KA or pilocarpine and for 30 min after PTZ. Behavioral seizures were scored by an investigator blinded to the treatment. Latency to the first wet dog shake after KA, latency to the first forelimb clonus (after pilocarpine, kainic acid or PTZ) and the score and duration of seizures were measured. When at least 1 hour had passed without any head bobbing (for pilocarpine) or any wet dog shakes (for KA), seizures were considered over. Status epilepticus lasting longer than 4 hours (for KA) or 5 hours (for pilocarpine) were assigned 4 and 5 hours for seizure duration. For animals receiving PTZ, the seizure duration was defined as the period of tonic-clonic seizures. EEG recording in the hippocampus was conducted as previously described (Lian et al., 2004). After anesthesia, a recording electrode was placed in a burr hole centered at 3.0 mm posterior to bregma, 1.8 mm lateral to the midline and then lowered 3.0 mm. A ground screw and wire was placed over the frontal region in another burr hole. This assembly was fixed to the skull with dental cement.
# Each animal was assigned the score of the most severe seizure observed. The behavioral seizures induced by KA or pilocarpine were scored according to an adjusted version of the scale of Racine (Bough et al., 2002): stage 1, wet dog shakes after KA or trembling after pilocarpine; stage 2, head bobbing and stereotypes; stage 3, unilateral forelimb clonus; stage 4, bilateral forelimb clonus; stage 5, rearing and falling; stage 6, jumping and/or running followed by falling. Death within 24 h was assigned stage 7.
# Adult rats received either D-F1,6BP, sodium valproate (VPA, 0.3 g/kg), 2-DG (0.25, 0.5 g/kg) or normal saline (vehicle) intraperitoneally followed 1 h later by one of the convulsants. The dose for VPA was based on experimental evidence that doses from 0.1 to 0.4 g/kg (ip) are effective in animal models (Bough and Eagles, 2001; Manent et al., 2007). Three doses of F1,6BP (0.25, 0.5 and 1 g/kg) were tested with this dosing schedule. Two additional groups were administered F1,6BP (0.5 or 1 g/kg, n=5) after pilocarpine. In this experiment, the F1,6BP was given intraperitoneally at the first behavioral seizure, which was chewing movements of the jaw. Two additional sets of animals were fed the classic ketogenic diet (No. F3666; Bio-Serv, Frenchtown, N.J.). One set of animals was given the diet beginning on postnatal day 22-26 (KD-Yng) and maintained on this diet for 4 weeks. Thus the seizures were tested in this group when the animals had reached approximately the same age (50-54 days) as the majority of the animals tested. […]
# [2] = intravenous, rats (Nunes et al., 2003); cited from earlier work
smiles,measurement,setting,value
"O=C(COP(=O)(O)O)[C@@H](O)[C@H](O)[C@H](O)COP(=O)(O)O [F1,6BP, Fructose-1,6-bisphosphate]",effect on the seizures,"[1]; F1,6BP 0.25 g/kg, n=6",no effect
same,animals with no seizures,"[1]; F1,6BP 0.5 g/kg",Two out of 8
same,mean seizure score,"[1]; F1,6BP 0.5 g/kg",2.5±0.5
same,animals with mild seizures (wet dog shakes or head bobbing),"[1]; F1,6BP 0.5 g/kg",three
same,animals with severe seizures,"[1]; F1,6BP 0.5 g/kg",3
same,onset of seizures,"[1]; F1,6BP 0.5 or 1 g/kg",significantly delayed
same,seizure duration,"[1]; F1,6BP 0.5 or 1 g/kg",decreased
same,seizure score,"[1]; F1,6BP 0.5 or 1 g/kg",decreased
same,animals with no seizures,"[1]; F1,6BP 1 g/kg",Three out of 8
same,average seizure score for the entire group,"[1]; F1,6BP 1 g/kg",1.4±0.5
same,mean latency to first forelimb clonus,"[1]; F1,6BP 1 g/kg",105 ± 7 min
same,animals with mild seizures (wet dog shakes or head bobbing),"[1]; F1,6BP 1 g/kg",3
same,animals with severe seizures,"[1]; F1,6BP 1 g/kg",2
same,LD50,[2],"1,068 mg/kg"
